{
  "source": "patent US8796323B2",
  "about": "“Defensin-like molecules as novel antimicrobial agents” (University of Maryland, Baltimore, priority 2010, dated 2014)",
  "key": {"[1]": {"experiment": "Surface Plasmon Resonance binding of compounds to immobilized 3-Lipid II", "conditions": "SPR, FIG. 5", "procedure": "The present inventors examined if the identified compounds themselves directly interact with Lipid II, which would be expected if they mimic the binding of HNP-1. Binding of compounds was tested directly using Surface Plasmon Resonance with 3-Lipid II immobilized on the chip surface (FIG. 5)."}, "[2]": {"system": "Staphylococcus aureus ATCC 29213", "experiment": "vCC antibacterial assay, S. aureus", "type": "cell-based", "conditions": "30 minutes exposure, 500 to 1.95 μM", "procedure": "(§1) The inventors have now tested the bacterial killing capacity of the identified compounds. The antibacterial activity was determined using the vCC assay as discussed in Ericksen, B., Wu, Z., Lu, W. and Lehrer, R. I. (2005), “Antibacterial activity and specificity of the six human {alpha}-defensins. Antimicrob Agents” Chemother 49, 269-75.). All compounds were tested initially for killing of Staphylococcus aureus ATCC 29213. All compounds were dissolved in DiMethylSulfylOxide (DMSO) and exposed to bacteria for 30 minutes in concentrations ranging from 500 to 1.95 μM. Compounds effectively killing S. aureus were subsequently tested against E. coli ATCC 25922 to assay for strain-selectivity."}, "E. coli ATCC 25922": {"system": "E. coli ATCC 25922", "experiment": "vCC antibacterial assay, E. coli (strain-selectivity)", "type": "cell-based", "conditions": "30 minutes exposure, 500 to 1.95 μM", "procedure": "as §1"}, "[3]": {"system": "intestinal epithelial cell line Caco-2", "experiment": "Caco-2 cell viability, MTT assay", "type": "cell-based", "conditions": "Caco-2, 24 h", "procedure": "Caco-2 cells were seeded at 2. 10^5 cells/ml and exposed to compounds ranging in concentration from 500 to 3.7125 μM. Cell viability was determined after 24 h by the MTT assay and is expressed as a percentage of the viability of untreated cells."}, "[4]": {"experiment": "ANTS/DPX leakage assay from large unilamellar vesicles", "conditions": "POPG LUVs, panel of six human α-defensins, FIG. 1", "procedure": "Large unilamellar vesicles (LUVs) with the low molecular weight fluorophore/quencher pair (ANTS/DPX) encapsulated were prepared using the standard extrusion method. Specifically, phospholipids were dissolved in chloroform at a desired molar ratio, dried as a film by solvent evaporation. After removal of residual solvent, the lipid film was hydrated in the fluorescent solution containing 5 mM HEPES, 12.5 mM ANTS, 45 mM DPX, and 20 mM NaCl, pH 7.0, freeze-thawed for 10 cycles and extruded 10 times through 0.4-μm polycarbonate membranes. LUVs were separated from unencapsulated materials by gel filtration chromatography using a Sepharose CL-4B column eluted with 5 mM HEPES, 100 mM NaCl, pH 7.4 (high-salt). For leakage assays in a low-salt buffer, purified vesicles were further diluted with 5 mM HEPES containing 10 mM NaCl, pH 7.4.\nLeakage of ANTS from LUVs, monitored on a LS-55 Perkin Elmer luminescence spectrometer, was characterized by an increase in fluorescence, which was quenched by DPX when encapsulated together inside liposomes (Ellens, H., et al., 1985, “H+- and Ca2+-induced fusion and destabilization of liposomes,” Biochemistry 24:3099-3106). 270 μl ANTS/DPX-encapsulated LUVs (in either high-salt or low-salt buffers) were added to each well of a 96-well plate to a final lipid concentration of 600 μM. 30 μl H2O was added to the first well of each row as a blank, and 30 μl 2.5% (v/v) Triton X-100 to the last (twelfth) well as the control for 100% leakage. Upon addition of 30 μl of a twofold dilution series of defensin, the fluorescence signal was recorded at 515 nm with an excitation wavelength of 353 nm, 10 nm bandwidths and a 390 nm cut-off filter in the emission path. Percent leakage is expressed as: % leakage=((Ft−F0)/(F100−F0))×100 where Ft is the fluorescence determined at different time points after addition of defensin, F0 is the background fluorescence of the “blank” cells, and F100 is the fluorescence of the control cells containing 0.25% Triton X-100. Lipid II Purification\nDefensins are believed to kill bacteria by permeabilizing the membrane, causing leakage of intracellular content and eventually cell lysis and death. The present inventors tested the ability of six human α-defensins to induce leakage of fluorophores encapsulated in LUVs (See FIG. 1). […] (A) At high salt concentration (5 mM HEPES, 100 mM NaCl, pH 7.4). (B) At low salt concentration (5 mM HEPES, 10 mM NaCl, pH 7.4). LUVs were 250 nm in diameter and 600 μM (phospholipids) in concentration.\n(A) Effects of surface charge on HNP1-induced leakage from LUVs of four different compositions: POPC (circle, surface charge=0), POPC/POPG=3:2 (square, surface charge=−0.4), POPC/POPG=2:3 (triangle, surface charge=−0.6), and POPG (diamond, surface charge=−1). (B) LUV (POPG:DPPC 1:1) leakage induced by L-HNP1 (circles) or D-HNP1 (squares). A two-fold dilution series of HNP1 peptides from 0.19 to 100 μg/ml was incubated with 600 μM LUVs for one hour before readings were taken. Error bars indicate the standard error in triplicate experiments."}, "S. aureus": {"system": "S. aureus", "conditions": "literature (Ericksen 2005; Wei 2009); cited from earlier work"}},
  "note": "No end group written: not given here.",
  "data": [
    {"molecule": "3-ethyl-5-methyl-4-phenyl-2-[3-(1,3,3-trimethyl-1,3-dihydro-2H-indol-2-ylidene)prop-1-en-1-yl]-1,3-thiazol-3-ium [Compound 7771-0701]", "values": [
      {"measurement": "binding to 3-Lipid II immobilized on the chip surface", "setting": "[1]", "result": "bind to Lipid II"},
      {"measurement": "killing of S. aureus", "setting": "[2]", "result": "very efficient in killing of S. aureus"}
    ]},
    {"molecule": "Oc1ccc(C(c2ccc(O)cc2)c2ccc(F)cc2)cc1", "note": "[Compound 0251-0215, 4-[(4-fluorophenyl)(4-hydroxyphenyl)methyl]phenol]", "values": [
      {"measurement": "binding to 3-Lipid II immobilized on the chip surface", "setting": "[1]", "result": "bind to Lipid II"},
      {"measurement": "killing of S. aureus", "setting": "[2]", "result": "very efficient in killing of S. aureus"}
    ]},
    {"molecule": "OCc1ccc2c(c1)C1c3ccccc3C2c2ccccc21", "note": "[Compound 5100015, pentacyclo[6.6.6.0˜2,7˜.0˜9,14˜.0˜15,20˜]icosa-2,4,6,9,11,13,15,17,19-nonaen-4-ylmethanol]", "values": [
      {"measurement": "binding to 3-Lipid II immobilized on the chip surface", "setting": "[1]", "result": "bind to Lipid II"},
      {"measurement": "killing of S. aureus", "setting": "[2]", "result": "very efficient in killing of S. aureus"}
    ]},
    {"molecule": "CC[n+]1c(/C=C/C=C2C=C(/C=C/N(C)c3ccccc3)CC(C)(C)C/2)sc2ccccc21", "note": "[Compound 5107930, 2-[3-(5,5-dimethyl-3-{2-[methyl(phenyl)amino]vinyl}-2-cyclohexen-1-ylidene)-1-propen-1-yl]-3-ethyl-1,3-benzothiazol-3-ium iodide]", "values": [
      {"measurement": "killing of S. aureus", "setting": "[2]", "result": "Effectively kills S. aureus at low concentrations"},
      {"measurement": "bactericidal activity against E. coli", "setting": "E. coli ATCC 25922", "result": "Shows little bactericidal activity against E. coli"},
      {"measurement": "cytotoxicity", "setting": "[3]", "result": "Displays relatively low cytotoxicity"}
    ]},
    {"molecule": "HNP4: fourth human neutrophil α-defensin (VCSCRLVFCRRTELRVGNCLIGGVSFTYCCTRV; not fully specified; ends and bridges not checked; UniProt P12838 64-96, looked up)", "values": [
      {"measurement": "membrane activity (leakage of ANTS-DPX from POPG LUVs)", "setting": "[4]", "result": "most membrane active defensin in the panel of six"},
      {"measurement": "bactericidal activity against S. aureus / Gram-positive bacteria", "setting": "S. aureus", "result": "ineffective against Gram-positive bacteria"}
    ]},
    {"molecule": "HD-5: α-defensin Human Defensin 5 (peptide, UniProt Q01523 20-94, looked up, Defensin-5) Defensin alpha 5: ESLQERADEATTQKQSGEDNQDLAISFAGNGLSALRTSGSQARATCYCRTGRCATRESLSGVCEISGRLYRLCCR", "values": [
      {"measurement": "membrane activity (leakage of ANTS-DPX from POPG LUVs)", "setting": "[4]", "result": "little membrane activity even at high concentrations"},
      {"measurement": "bactericidal activity against S. aureus / Gram-positive bacteria", "setting": "S. aureus", "result": "potently bactericidal"}
    ]}
  ]
}
